Measured values from patent publication US20240336594A1, “SIX-MEMBERED ARYL OR HETEROARYL AMIDES, AND COMPOSITION AND USE THEREOF” (BETTA PHARMACEUTICALS CO., LTD, priority 2021, published 2024).

The compounds below were run against T1, MALT1 (Homo sapiens, UniProt Q9UDY8) (assay: MALT1 protease inhibition assay (AMC-labeled peptide, fluorescence 360/460)). Conditions: substrate Ac-LRSR-AMC, 15 min preincubation, 90 min at 25° C.
T1 sequence (Q9UDY8 1-824): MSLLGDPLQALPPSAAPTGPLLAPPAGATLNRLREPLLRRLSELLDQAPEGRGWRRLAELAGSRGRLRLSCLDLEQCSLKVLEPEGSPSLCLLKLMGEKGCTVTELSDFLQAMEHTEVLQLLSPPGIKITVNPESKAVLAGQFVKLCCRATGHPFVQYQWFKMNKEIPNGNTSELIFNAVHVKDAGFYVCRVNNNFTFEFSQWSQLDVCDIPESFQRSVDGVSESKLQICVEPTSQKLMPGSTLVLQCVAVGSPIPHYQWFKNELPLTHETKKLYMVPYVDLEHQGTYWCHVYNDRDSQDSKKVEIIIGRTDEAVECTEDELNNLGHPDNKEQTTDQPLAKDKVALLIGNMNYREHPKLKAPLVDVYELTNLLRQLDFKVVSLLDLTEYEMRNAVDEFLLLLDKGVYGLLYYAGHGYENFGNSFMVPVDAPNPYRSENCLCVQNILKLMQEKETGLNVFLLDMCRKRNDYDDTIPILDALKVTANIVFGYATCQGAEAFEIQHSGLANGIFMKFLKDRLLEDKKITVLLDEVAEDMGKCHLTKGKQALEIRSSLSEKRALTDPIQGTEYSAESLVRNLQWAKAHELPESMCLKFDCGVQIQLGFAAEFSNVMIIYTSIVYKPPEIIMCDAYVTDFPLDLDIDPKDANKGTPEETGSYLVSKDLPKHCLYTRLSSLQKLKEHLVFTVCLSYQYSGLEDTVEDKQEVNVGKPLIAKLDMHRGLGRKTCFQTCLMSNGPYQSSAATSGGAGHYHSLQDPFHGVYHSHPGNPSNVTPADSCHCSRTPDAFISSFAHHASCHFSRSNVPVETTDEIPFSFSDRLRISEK
Type: biochemical
Procedure: Test compounds of the present invention (in 100% DMSO) were spotted into a 384-well dilution plate and serially diluted to the required concentrations with DMSO. Then, 0.2 μL of the test compounds were transferred into a new 384-well reaction plate by Echo following centrifugation. The MALT enzyme and its substrate, AMC-labeled peptide, were prepared in 1× protease buffer to yield 2× enzyme solution and 2× peptide solution. Subsequently, 10 μL of 2× enzyme solution was added into the 384-well reaction plate, incubating with the test compounds for 15 minutes at 25° C. After that, 10 μL of 2× peptide solution was added into the plate, continuing to incubate for 90 minutes at 25° C. The plate was then placed on an Envision multifunctional microplate reader to collect raw data, which would be converted into inhibition rate:
Inhibition rate %=(max−sample)/(max−min)*100%. • “max” values were measured using the reaction with enzyme but no compound treated, while “min” values were generated from control wells containing assay buffer without enzyme.
Curve fitting was done with Graphpad Prism software to determine the IC50 values. The specific experimental operations are as follows:
58.82 g Na Citrate·2H2O powder was added into 140 mL ddH2O and mixed in a 37° C. water bath. Once there were no visible particles, the remaining solutions were added successively with continuous stirring for 10 minutes. The final volume was adjusted to 200 mL. The buffer was stored at room temperature. DTT was added before use.
• 1) All test compounds were diluted from 10 mM stock solution into 1 mM in a 384 well dilution plate (labcyte, PP-0200); • 2) Ten various concentrations of the diluted compound solution above were obtained by serial dilution at an equal ratio of 1:3; • 3) 0.2 μL DMSO was transferred to two empty wells of the 384 reaction plate as blank controls without compound and enzyme respectively; • 4) 0.2 μL of the test compound at different concentrations was also transferred into the 384 reaction plate by Echo, with two duplicate wells for each concentration, then the plate was centrifuged at 1000 rpm for 1 min.
• 1) The MALT1 protease and AMC-labeled peptide was prepared in 1× protease buffer to obtain 2× enzyme solution and 2× peptide solution. 10 μL of 2× enzyme solution was added into the 384-well reaction plate. The plate was centrifuged at 1000 rpm for 1 min and incubated for 15 min at 25° C. • 2) 10 μL of 2× peptide solution was then transferred to the 384 reaction plate, and the plate was centrifuged at 1000 rpm for 1 min and incubate for 90 min at 25° C.

Compound	IC50
CC1(CNC(=O)c2ncc(NC(=O)c3cc(F)c(-c4ccc(F)cc4N)cc3Cl)cc2Cl)CC1 [Example A436, 5-(2′-amino-5-chloro-2,4′-difluoro-[1,1′-biphenyl]-4-carboxamido)-3-chloro-N-((1-methylcyclopropyl)methyl) picolinamide]	0.1 to 0.5 µM
Nc1cc(F)ccc1-c1cc(Cl)c(C(=O)Nc2cnc(C(=O)NCC3CCS(=O)(=O)CC3)c(Cl)c2)cc1F [Example A437, 5-(2′-amino-5-chloro-2,4′-difluoro-[1,1′-biphenyl]-4-carboxamido)-3-chloro-N-((1,1-dioxidotetrahydro-2H-thiopyran-4-yl)methyl)picolinamide]	0.01 to 0.1 µM
CCCCNC(=O)c1ncc(NC(=O)c2cc(F)c(-c3ccc(F)cc3N)cc2Cl)cc1Cl [Example A438, 5-(2′-amino-5-chloro-2,4′-difluoro-[1,1′-biphenyl]-4-carboxamido)-N-butyl-3-chloropicolinamide]	0.01 to 0.1 µM
C#CCNC(=O)c1ncc(NC(=O)c2cc(F)c(-c3ccc(F)cc3N)cc2Cl)cc1Cl [Example A439, 5-(2′-amino-5-chloro-2,4′-difluoro-[1,1′-biphenyl]-4-carboxamido)-3-chloro-N-(prop-2-yn-1-yl) picolinamide]	> 0.5 µM
O=C(Nc1cnc(-n2nccn2)c(C(F)(F)F)c1)c1cc(F)c(-c2c(Br)cncc2[N+](=O)[O-])cc1Cl [Example A440, N-(6-(2H-1,2,3-triazol-2-yl)-5-(trifluoromethyl)pyridin-3-yl)-4-(3-bromo-5-nitropyridin-4-yl)-2-chloro-5-fluorobenzamide]	0.01 to 0.1 µM
N#CCNC(=O)c1ncc(NC(=O)c2cc(F)c(-c3ccc(F)cc3N)cc2Cl)cc1Cl [Example A441, 5-(2′-amino-5-chloro-2,4′-difluoro-[1,1′-biphenyl]-4-carboxamido)-3-chloro-N-(cyanomethyl)picolinamide]	0.01 to 0.1 µM
Cc1cc(F)cc(N)c1-c1cc(Cl)c(C(=O)Nc2cnc(C(=O)NCC#N)c(Cl)c2)cc1F [Example A442, 5-(2′-amino-5-chloro-2,4′-difluoro-6′-methyl-[1,1′-biphenyl]-4-carboxamido)-3-chloro-N-(cyanomethyl)picolinamide]	0.01 to 0.1 µM
Nc1cc(F)ccc1-c1cc(Cl)c(C(=O)Nc2cnc(C(=O)NCC(F)(F)F)c(Cl)c2)cc1F [Example A443, 5-(2′-amino-5-chloro-2,4′-difluoro-[1,1′-biphenyl]-4-carboxamido)-3-chloro-N-(2,2,2-trifluoroethyl)picolinamide]	≤ 0.01 µM
CCNC(=O)c1ncc(NC(=O)c2cc(F)c(-c3ccc(F)cc3N)cc2Cl)cc1Cl [Example A444, 5-(2′-amino-5-chloro-2,4′-difluoro-[1,1′-biphenyl]-4-carboxamido)-3-chloro-N-ethylpicolinamide]	≤ 0.01 µM
O=C(Nc1cnc(-n2nccn2)c(Cl)c1)c1cc(F)c(-c2ccncc2C2CC2)cc1Cl [Example A445, 2-chloro-N-(5-chloro-6-(2H-1,2,3-triazol-2-yl)pyridin-3-yl)-4-(3-cyclopropylpyridin-4-yl)-5-fluorobenzamide]	0.01 to 0.1 µM
CC(C)(C)CNC(=O)c1ncc(NC(=O)c2cc(F)c(-c3ccc(F)cc3N)cc2Cl)cc1Cl [Example A446, 5-(2′-amino-5-chloro-2,4′-difluoro-[1,1′-biphenyl]-4-carboxamido)-3-chloro-N-neopentylpicolinamide]	≤ 0.01 µM
Nc1cc(F)ccc1-c1cc(Cl)c(C(=O)Nc2cnc(C(=O)NCc3ccoc3)c(Cl)c2)cc1F [Example A447, 5-(2′-amino-5-chloro-2,4′-difluoro-[1,1′-biphenyl]-4-carboxamido)-3-chloro-N-(furan-3-ylmethyl)picolinamide]	0.01 to 0.1 µM
COCCNC(=O)c1ncc(NC(=O)c2cc(F)c(-c3ccc(F)cc3N)cc2Cl)cc1Cl [Example A449, 5-(2′-amino-5-chloro-2,4′-difluoro-[1,1′-biphenyl]-4-carboxamido)-3-chloro-N-(2-methoxyethyl)picolinamide]	0.01 to 0.1 µM
CC(C#N)NC(=O)c1ncc(NC(=O)c2cc(F)c(-c3ccc(F)cc3N)cc2Cl)cc1Cl (stereo not drawn) [Example A450, 5-(2′-amino-5-chloro-2,4′-difluoro-[1,1′-biphenyl]-4-carboxamido)-3-chloro-N-(1-cyanoethyl)picolinamide]	0.01 to 0.1 µM
Nc1cc(F)ccc1-c1cc(Cl)c(C(=O)Nc2cnc(C(=O)NCC3CC(F)(F)C3)c(Cl)c2)cc1F [Example A451, 5-(2′-amino-5-chloro-2,4′-difluoro-[1,1′-biphenyl]-4-carboxamido)-3-chloro-N-((3,3-difluorocyclobutyl)methyl) picolinamide]	0.01 to 0.1 µM
Nc1cc(F)ccc1-c1cc(Cl)c(C(=O)Nc2cnc(C(=O)NCc3nnco3)c(Cl)c2)cc1F [Example A452, N-((1,3,4-oxadiazol-2-yl)methyl)-5-(2′-amino-5-chloro-2,4′-difluoro-[1,1′-biphenyl]-4-carboxamido)-3-chloropicolinamide]	0.1 to 0.5 µM
CN(C)CCNC(=O)c1ncc(NC(=O)c2cc(F)c(-c3ccc(F)cc3N)cc2Cl)cc1Cl [Example A453, 5-(2′-amino-5-chloro-2,4′-difluoro-[1,1′-biphenyl]-4-carboxamido)-3-chloro-N-(2-(dimethylamino)ethyl) picolinamide]	0.1 to 0.5 µM
Nc1cc(F)ccc1-c1cc(Cl)c(C(=O)Nc2cnc(C(=O)NCC3CCC3)c(Cl)c2)cc1F [Example A454, 5-(2′-amino-5-chloro-2,4′-difluoro-[1,1′-biphenyl]-4-carboxamido)-3-chloro-N-(cyclobutylmethyl) picolinamide]	0.1 to 0.5 µM
Cn1ccc(CNC(=O)c2ncc(NC(=O)c3cc(F)c(-c4ccc(F)cc4N)cc3Cl)cc2Cl)n1 [Example A455, 5-(2′-amino-5-chloro-2,4′-difluoro-[1,1′-biphenyl]-4-carboxamido)-3-chloro-N-((1-methyl-1H-pyrazol-3-yl)methyl)picolinamide]	0.01 to 0.1 µM
N#CCNC(=O)c1ncc(NC(=O)c2cc(F)c(-c3ccc(F)nc3N)cc2Cl)cc1Cl [Example A456, 5-(4-(2-amino-6-fluoropyridin-3-yl)-2-chloro-5-fluorobenzamido)-3-chloro-N-(cyanomethyl)picolinamide]	0.01 to 0.1 µM
Nc1cc(F)ccc1-c1cc(Cl)c(C(=O)Nc2cnc(C(=O)NCC(F)(F)C(F)(F)C(F)(F)F)c(Cl)c2)cc1F [Example A458, 5-(2′-amino-5-chloro-2,4′-difluoro-[1,1′-biphenyl]-4-carboxamido)-3-chloro-N-(2,2,3,3,4,4,4-heptafluorobutyl) picolinamide]	> 0.5 µM
Nc1cc(F)ccc1-c1cc(Cl)c(C(=O)Nc2cnc(C(=O)NCCOC(F)(F)F)c(Cl)c2)cc1F [Example A459, 5-(2′-amino-5-chloro-2,4′-difluoro-[1,1′-biphenyl]-4-carboxamido)-3-chloro-N-(2-(trifluoromethoxy)ethyl)picolinamide]	0.1 to 0.5 µM
Nc1cc(F)ccc1-c1cc(Cl)c(C(=O)Nc2cnc(-n3nccn3)c(Cl)c2)cc1N [Example A460, 2,2′-diamino-5-chloro-N-(5-chloro-6-(2H-1,2,3-triazol-2-yl)pyridin-3-yl)-4′-fluoro-[1,1′-biphenyl]-4-carboxamide]	0.01 to 0.1 µM
Nc1cc(F)ccc1-c1cc(Cl)c(C(=O)Nc2cnc(C(=O)NCCF)c(Cl)c2)cc1F [Example A461, 5-(2′-amino-5-chloro-2,4′-difluoro-[1,1′-biphenyl]-4-carboxamido)-3-chloro-N-(2-fluoroethyl)picolinamide]	0.01 to 0.1 µM
